Patent US20150024406A1, “INCREASED AQUAPORIN EXPRESSION ON CELLULAR MEMBRANE TO IMPROVE CRYOPRESERVATION EFFICIENCY” (priority 2013, published 2015)
Read-outs that look alike come from different tables or passages of the source.

Legend:
[1] = system: AQP8; test: Confocal immunofluorescence of AQP8 localization in cultured hepatocytes; assay type: cell-based, rat; details: hepatocytes treated 12 hours; 100 μM Bt2cAMP or 1 μM glucagon; vs control
Method: Confocal immunofluorescence. For confocal immunofluorescence experiments, collagen coated chamber slides were used instead of the tissue culture plates. Hepatocytes (5×10^5) were plated on the collagen-coated chamber slides, and incubated at 37° C. for 4 hours. The cells were then treated with a) Bt2cAMP, b) glucagon and c) normal DMEM media (control) and incubated for 12 hours. After the 12 hours, the cells were fixed with 2% formaldehyde for 10 minutes at room temperature and permeabilized with 0.2% Triton X-100 for 2 minutes. The cells were then treated with a blocking solution containing 3% BSA at room temperature and incubated overnight at 4° C. with goat affinity-purified AQP8 antibody (Santa Cruz Biotechnology Inc., Santa Cruz, Calif.) of dilution 1:50 in PBS. Then, the chamber slides were rinsed with PBS solution and treated with Alexa Flour 488—conjugated donkey anti-goat […] secondary antibody (Invitrogen, Calif.) for 1 hour. The dilution of the secondary antibody used was 1:400 in PBS. Then the cells were treated with 1 μg/mL concentration of Hoechst 33342 (Molecular Probes, Eugene, Oreg.) and mounted with Pro- Long (Molecular Probes, Eugene, Oreg.). Fluorescence localization of the AQP8 was then detected by immersion oil confocal microscopy with 100× magnification lens.

[2] = system: rat primary hepatocytes; test: Cell shrinkage analysis in hypertonic NaCl solution; assay type: cell-based; details: 5M NaCl, 20 minutes; 12 hours treatment; HgCl2 0.1 mM for 5 min; vs control cells; FIG. 1
Method: Cell shrinkage analysis. Cell shrinkage analysis was performed on treated and control samples prepared on tissue culture plates as described above. One culture plate at a time was transferred to an Olympus IX70 microscope (Olympus America Inc, Pa.) mounted with a computer interfaced camera (Hamamatsu Corporation, Bridgewater, N.J.). The media from culture plate was aspirated and 1 mL of 5M NaCl solution was added. Response of the cells to the hypertonic NaCl solution was captured at 40× magnification at one minute intervals for 20 minutes. Images were processed using software MetaMorph Imaging System (Molecular Devices, Sunnyvale, Calif.). Using MetaMorp, the variations of the cross-sectional area of the cells at various sites were measured over time to analyze the shrinkage behavior of the cells in the hypertonic solution.

[3] = system: rat primary hepatocytes; test: Post-thaw cell viability after cryopreservation (Live-Dead staining); assay type: cell-based; details: for post-thaw cell viability vs control: 20% DMSO or 20% glycerol in DMEM as CPA, one week at −80° C., 24 hours recuperation, FIG. 2 and 3; for cell survival with glycerol as the CPA compared with DMSO: treated cells, glycerol vs DMSO as cryoprotectant
Method: Cryopreservation of Treated and Control Samples. After treatment of cell cultures for 12 hours, samples were removed from the incubator and placed on ice to reduce the cell temperature to 4° C. to minimize the toxicity of the cryoprotecting agent (CPA). Two different CPA solutions, 20% dimethyl sulfoxide in DMEM media and 20% glycerol in DMEM media were used. The CPA solution (1 mL) was added to the samples and incubated at 4° C. for 10 minutes to reach equilibrium. Samples were transferred to the CryoMed Control Rate freezer (Thermo Forma, Waltham, Mass.).
The controlled cooling process was initiated at 4° C. and a cooling rate of 1° C./min was maintained until −16° C. followed by a cooling rate of 2° C./min until −36° C./min, and thereafter a cooling rate of 10° C./min until a temperature of −80° C. was achieved. The samples were further maintained at −80° C. for 5 minutes to ensure equilibrium. At the end of the freezing process, the samples were transferred immediately to a −80° C. Revco freezer (Kendro Laboratory, Ashville, N.C.) and stored for a week.
Evaluation of Post-thaw Cell Viability. The cryopreserved samples from the −80° C. freeze were transferred to a sterile glass box and plated in a water bath maintained at 37° C. until the media in the frozen samples completely thawed. At this juncture, the samples were between 5-10° C. Immediately, the CPA containing media in the samples was aspirated to prevent any toxicity to the cells. DMEM (1 mL) was added to the samples and incubated at 37° C. for 10 minutes. After 10 minutes of incubation, the media in the samples was again refreshed in order to remove any remaining traces of CPA. These samples were then placed in the incubator at 37° C., 5% CO2 for 24 hours and allowed to recuperate from the freeze-thaw process.
After 24 hours of recuperation time, cell viability of the samples was determined by using nuclei fluorescence dyes. The samples were washed with 1× PBS solution and incubated with Hoechst Dye (1 μg/mL) and Ethidium Homodimer (2 μM)(Molecular Probes, Eugene, Oreg.) in PBS for 30 minutes. The viability solution was aspirated, and samples were fixed by adding 10% formalin (1 mL) (VWR, West Chester, Pa.) and incubating for 20 minutes. Subsequently, the cell viability was examined with a confocal microscope with DAPI (excitation 358 nm; emission 461 nm) and Texas red (excitation 596 nm; emission 620 nm) filters. The fluorescent images obtained were then analyzed using MetaMorp Imaging System.

[4] = system: AQP8; details: cited from earlier work

## CCCC(=O)Nc1ncnc2c1ncn2[C@@H]1O[C@@H]2COP(=O)(O)O[C@H]2[C@H]1OC(=O)CCC [Bt2cAMP, sodium (3aR,4R,6R,6aR)-4-(6-butanamido-9H-purin-9-yl)-6-[(butanoyloxy)methyl]-2-oxo-tetrahydro-2H-1,3,5,2λ^5-furo[3,4-d][1,3,2] dioxaphosphol-2-olate]
[1]
  AQP8 labeling at the cellular membrane: higher density of AQP8 labeling at the cellular membrane
[2]
  cross-sectional area of cells over time (shrinkage) in hypertonic environment: significant decrease in their cross-sectional area over time
[3]
  post-thaw cell viability vs control: significantly higher than the control
  cell survival with glycerol as the CPA compared with DMSO: significant increase in the cell survival
[3]; 12 hrs treatment, most of the culture samples
  post-thaw cell viability of Bt2cAMP-treated vs glucagon-treated samples: higher cell viability compared to the ones treated with glucagon

## [Cl][Hg][Cl] [HgCl2]
[2]
  cross-sectional area of cells over time (shrinkage) in hypertonic environment: no significant shrinkage behavior
[3]
  post-thaw cell viability vs control: significantly lower cell viability

## OCC(O)CO [glycerol]
[3]; glycerol as CPA compared to DMSO
  post-thaw cell viability by CPA used: significantly higher post-thaw cell viability compared to DMSO

## glucagon
[1]
  AQP8 labeling at the cellular membrane: higher density of AQP8 labeling at the cellular membrane
[2]
  cross-sectional area of cells over time (shrinkage) in hypertonic environment: significant decrease in their cross-sectional area over time
[3]
  post-thaw cell viability vs control: significantly higher than the control
  cell survival with glycerol as the CPA compared with DMSO: significant increase in the cell survival
[4]; treatment of hepatocytes for 16 hours
  increase in the quantity of AQP8 on cellular membrane: 80%
[4]; treatment of hepatocytes for 36 hours
  increase in the quantity of AQP8 on cellular membrane: 120%
